Source: PubChem BioAssay AID652019 (Molecular Libraries Program, Specialized Chemistry Center, …, 2013)
The source made the active and inactive calls.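 Rule for the calls: active = compound whose activity held up on retesting over a range of doses, giving a fitted IC50; inactive = the rest.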

test system: E. coli EV36, T7 phage lysis inhibition, OD600; experiment: inhibition of T7 phage lysis, E. coli EV36, dose response, selectivity assay for bacterial capsule biogenesis inhibitor project, OD600, set 6 (AID 652019)

**Q.** How did the IC50 turn out when `COc1cc(NC(=O)c2ccc3nc(NC(=O)OC(C)(C)C)sc3c2)ccn1` was run?
**A.** Its IC50 is > 50 µM (inactive).

**Q.** For `CC(C)(C)OC(=O)Nc1ccc(NC(=O)c2ccc3nc(N4CCCC4)sc3c2)cn1`, which IC50 is on record?
**A.** Its IC50 is > 50 µM (inactive).

**Q.** Which IC50 does the source give for `O=C(Nc1ccncc1F)c1ccc2nc(N3CCCC3)sc2c1` here?
**A.** The IC50 was > 50 µM (inactive).

**Q.** Which IC50 does the source give for `O=C(O)c1ccc2ncsc2c1` here?
**A.** The IC50 was > 50 µM (inactive).

**Q.** For `Cc1nc2ccc(C(=O)Nc3ccnc(F)c3)cc2s1`, which IC50 is on record?
**A.** The IC50 was > 50 µM (inactive).

**Q.** `Cc1nc2ccc(C(=O)Nc3cnccc3NC(=O)OC(C)(C)C)cc2s1` was tested. Which IC50 did it give?
**A.** Its IC50 is > 50 µM (inactive).

**Q.** With `Cc1cnccc1NC(=O)c1ccc2nc(N)sc2c1` as the compound, how does the IC50 read?
**A.** The IC50 was > 50 µM (inactive).

**Q.** With `O=C(Nc1ccncc1Br)c1ccc2nc(N3CCCC3)sc2c1` as the compound, how does the IC50 read?
**A.** The IC50 was > 50 µM (inactive).

**Q.** For `Cc1cnccc1NC(=O)c1ccc2ncsc2c1`, which IC50 is on record?
**A.** The IC50 was 3.58 µM.

**Q.** `Cc1cnccc1NC(=O)c1ccc2nc(NC(=O)OC(C)(C)C)sc2c1` was tested. Which IC50 did it give?
**A.** The IC50 was > 50 µM (inactive).

**Q.** How did the IC50 turn out when `CC(C)(C)OC(=O)Nc1cnccc1NC(=O)c1ccc2nc(N)sc2c1` was run?
**A.** Its IC50 is > 50 µM (inactive).

**Q.** Which IC50 does the source give for `CC(C)(C)OC(=O)Nc1ccc(NC(=O)c2ccc3nc(NC(=O)OC(C)(C)C)sc3c2)cn1` here?
**A.** Its IC50 is > 50 µM (inactive).

**Q.** `Cc1cc(NC(=O)c2ccc3nc(N4CCCC4)sc3c2)ccn1` was tested. Which IC50 did it give?
**A.** Its IC50 is > 50 µM (inactive).

**Q.** How did the IC50 turn out when `COc1cc(NC(=O)c2ccc3nc(N4CCCC4)sc3c2)ccn1` was run?
**A.** Its IC50 is > 50 µM (inactive).

**Q.** Which IC50 does the source give for `CC(C)(C)OC(=O)Nc1cnccc1NC(=O)c1ccc2ncsc2c1` here?
**A.** Its IC50 is > 50 µM (inactive).

**Q.** `CC(C)(C)OC(=O)Nc1nc2ccc(C(=O)Nc3ccncc3Br)cc2s1` was tested. Which IC50 did it give?
**A.** Its IC50 is > 50 µM (inactive).

**Q.** `CC(C)(C)OC(=O)Nc1nc2ccc(C(=O)Nc3ccncc3)cc2s1` was tested. Which IC50 did it give?
**A.** The IC50 was > 50 µM (inactive).

**Q.** How did the IC50 turn out when `COc1cc(NC(=O)c2ccc3nc(N)sc3c2)ccn1` was run?
**A.** The IC50 was 0.94 µM.

**Q.** Which IC50 does the source give for `O=C(Nc1ccnc(Br)c1)c1ccc2nc(N3CCCC3)sc2c1` here?
**A.** The IC50 was > 50 µM (inactive).

**Q.** With `Cc1nc2ccc(C(=O)Nc3ccncc3C)cc2s1` as the compound, how does the IC50 read?
**A.** Its IC50 is > 50 µM (inactive).

**Q.** How did the IC50 turn out when `O=C(Nc1ccncc1F)c1ccc2ncsc2c1` was run?
**A.** Its IC50 is 3.31 µM.

**Q.** With `O=C(Nc1ccncc1Br)c1ccc2ncsc2c1` as the compound, how does the IC50 read?
**A.** Its IC50 is > 50 µM (inactive).

**Q.** `CC(C)(C)OC(=O)Nc1nc2ccc(C(=O)Nc3ccnc(Cl)c3)cc2s1` was tested. Which IC50 did it give?
**A.** The IC50 was 0.49 µM.

**Q.** `COc1cc(NC(=O)c2ccc3nc(C)sc3c2)ccn1` was tested. Which IC50 did it give?
**A.** Its IC50 is 3.96 µM.

**Q.** How did the IC50 turn out when `Cc1nc2ccc(C(=O)Nc3ccncc3)cc2s1` was run?
**A.** Its IC50 is 2.54 µM.

**Q.** For `Cc1cnccc1NC(=O)c1ccc2nc(N3CCCC3)sc2c1`, which IC50 is on record?
**A.** The IC50 was > 50 µM (inactive).

**Q.** How did the IC50 turn out when `CC(C)(C)OC(=O)Nc1nc2ccc(C(=O)Nc3ccnc(F)c3)cc2s1` was run?
**A.** The IC50 was 1.16 µM.

**Q.** Which IC50 does the source give for `O=C(Nc1ccncc1)c1ccc2nc(N3CCCC3)sc2c1` here?
**A.** Its IC50 is > 50 µM (inactive).

**Q.** How did the IC50 turn out when `Nc1ccncc1` was run?
**A.** Its IC50 is > 50 µM (inactive).

**Q.** For `Nc1nc2ccc(C(=O)Nc3ccncc3)cc2s1`, which IC50 is on record?
**A.** Its IC50 is > 50 µM (inactive).

**Q.** How did the IC50 turn out when `Cc1nc2ccc(C(=O)Nc3ccncc3F)cc2s1` was run?
**A.** The IC50 was > 50 µM (inactive).

**Q.** `Cc1nc2ccc(C(=O)Nc3ccncc3Br)cc2s1` was tested. Which IC50 did it give?
**A.** Its IC50 is > 50 µM (inactive).

**Q.** Which IC50 does the source give for `CC(C)(C)OC(=O)Nc1nc2ccc(C(=O)Nc3ccnc(Br)c3)cc2s1` here?
**A.** Its IC50 is 3.66 µM.

**Q.** `Nc1nc2ccc(C(=O)Nc3ccncc3F)cc2s1` was tested. Which IC50 did it give?
**A.** The IC50 was > 50 µM (inactive).

**Q.** Which IC50 does the source give for `Cc1cc(NC(=O)c2ccc3nc(NC(=O)OC(C)(C)C)sc3c2)ccn1` here?
**A.** The IC50 was 0.49 µM.

**Q.** How did the IC50 turn out when `O=C(Nc1ccnc(Cl)c1)c1ccc2nc(N3CCCC3)sc2c1` was run?
**A.** The IC50 was > 50 µM (inactive).

**Q.** How did the IC50 turn out when `Nc1cnccc1NC(=O)c1ccc2ncsc2c1` was run?
**A.** The IC50 was > 50 µM (inactive).
